# Reference: ChEMBL document CHEMBL1141665, “Quantitative structure-activity relationship studies of a series of non-benzodiazepine structural ligands binding to benzodiazepine receptor” (Eur J Med Chem, 2008)
# Assay: Displacement of [3H]diazepam from GABAA/BzR in rat brain membrane
# Format: cell membranes
row,pIC50,SMILES
1,6.17,CCOC(=O)c1cc2c(cn1)Cc1ccccc1-2
2,5.94,Cn1c2ccccc2c2c3[nH]c4ccccc4c3ncc21
3,6.91,COc1cc2c(cn1)[nH]c1ccccc12
4,8,Clc1ccc2c(c1)[nH]c1c2ncc2[nH]c3ccccc3c21
5,8.22,Brc1ccc2[nH]c3cnc4c5ccccc5[nH]c4c3c2c1
6,6.52,Cc1cc(-n2nc3c4ccccc4n(C)cc-3c2=O)cs1
7,6.6,CCc1nc2c3ccccc3[nH]c2c2c1[nH]c1ccccc12
8,6.24,Oc1cccc2[nH]c3c4c5ccccc5nc-4c[nH]c3c12
9,8.22,Fc1ccc2[nH]c3c4c5ccccc5nc-4c[nH]c3c2c1
10,7.36,Nc1ccc2[nH]c3c[nH]c4c5ccccc5nc-4c3c2c1
11,8.1,COc1ccc2c(c1)[nH]c1c2ncc2[nH]c3ccccc3c21
12,5.04,CCOC(=O)c1cc2c(cn1)oc1ccccc12
13,9.29,Cc1cc(-n2nc3c4cc(F)ccc4[nH]cc-3c2=O)cs1
14,8.4,c1ccc2c(c1)[nH]c1c2ncc2[nH]c3ccccc3c21
15,9.51,O=C1C2C=Nc3ccccc3C2=NN1c1ccccc1 (centres undefined) [CGS-8216]
16,6.65,Cc1ccc2[nH]c3c4c5ccccc5nc-4c[nH]c3c2c1
17,5.4,Oc1cc2c3ccccc3nc-2c[nH]1
18,6.05,COc1ccc2[nH]c3c4c5ccccc5nc-4c[nH]c3c2c1
19,7.35,Clc1cc2c(cn1)[nH]c1ccccc12
20,8.99,O=c1c2cnc3ccccc3c2[nH]n1-c1ccsc1
21,8.1,Cc1ccc2c(c1)[nH]c1c3c4ccccc4nc-3c[nH]c12
22,8.99,O=c1c2cnc3ccccc3c2[nH]n1-c1csc(Cl)c1
23,6.6,COc1cccc2[nH]c3c4c5ccccc5nc-4c[nH]c3c12
24,8.94,O=C1C2C=Nc3ccccc3C2=NN1c1ccc(Cl)cc1 (centres undefined) [CGS-9896]
25,6.9,O=[N+]([O-])c1cc2c3ccccc3nc-2c[nH]1
26,6.94,Oc1ccc2[nH]c3c4c5ccccc5nc-4c[nH]c3c2c1
27,8.22,Oc1ccc2c(c1)[nH]c1c3c4ccccc4nc-3c[nH]c12
28,5.77,CCOC(=O)c1cc2c(cn1)sc1ccccc12
29,9.35,Cc1cc(-n2[nH]c3c(cnc4ccccc43)c2=O)cs1

# Second part, the molecule before the results:
row,SMILES,pIC50
1,Cn1c2ccccc2c2c1ccc1c3ccccc3n(C)c12,5.72
2,COC(=O)c1cc2c(cn1)[nH]c1ccccc12 [BETA-CCM],8.3
3,Cc1cccc2c1[nH]c1c3c4ccccc4nc-3c[nH]c12,7.08
4,Fc1cccc2c1[nH]c1c3c4ccccc4nc-3c[nH]c12,7.92
5,O=[N+]([O-])c1ccc2[nH]c3c[nH]c4c5cc(Cl)ccc5nc-4c3c2c1,5.92
6,Brc1ccc2[nH]c3c4c5ccccc5nc-4c[nH]c3c2c1,6.12
7,Cn1c2ccccc2c2[nH]cc3nc4ccccc4c-3c21,6.8
8,O=[N+]([O-])c1ccc2[nH]c3c[nH]c4c5ccccc5nc-4c3c2c1,8.4
9,c1ccc(Oc2ccc3[nH]c4c(ncc5[nH]c6ccccc6c54)c3c2)cc1,5.8
10,Cc1ccc2[nH]cc3c(=O)n(-c4csc(C)c4)nc-3c2c1,9.27
11,Cc1cc(-n2nc3c4cc(Cl)ccc4[nH]cc-3c2=O)cs1,9.06
12,Brc1ccc2c(c1)[nH]c1c3c4ccccc4nc-3c[nH]c12,7.72
13,Brc1cccc2c1[nH]c1c3c4ccccc4nc-3c[nH]c12,7.55
14,Clc1cccc2[nH]c3c4c5ccccc5nc-4c[nH]c3c12,6.15
15,Cc1cc(-n2[nH]c3c(cnc4cc(F)ccc43)c2=O)cs1,9.05
16,O=[N+]([O-])c1ccc2[nH]c3c[nH]c4c5ccc(Cl)cc5nc-4c3c2c1,6.9
17,Nc1ccc2[nH]c3c[nH]c4c5ccc(Cl)cc5nc-4c3c2c1,7.01
18,Clc1ccc2[nH]c3c4c5ccccc5nc-4c[nH]c3c2c1,5.67
19,c1ccc2c(c1)[nH]c1cnccc12 [NORHARMANE],5.79
20,Clc1ccc2[nH]c3c[nH]c4c5cccc(Cl)c5nc-4c3c2c1,6.51
21,Clc1cccc2c1[nH]c1c3c4ccccc4nc-3c[nH]c12,7.1
22,Cc1ccc2c(c1)ncc1c(=O)n(-c3csc(C)c3)[nH]c12,8.87
23,Fc1ccc2c(c1)[nH]c1c3c4ccccc4nc-3c[nH]c12,8.15
24,Cc1nccc2c1[nH]c1ccccc12 [HARMAN],4.91
25,Cc1cc(-n2[nH]c3c(cnc4cc(Cl)ccc43)c2=O)cs1,8.96
